For assay [1], the target named is T1, Human Neuropeptide Y2 Receptor (Homo sapiens, UniProt P49146).
T1 construct: purchased CHEMICON HTS066M
T1 sequence (P49146 1-381): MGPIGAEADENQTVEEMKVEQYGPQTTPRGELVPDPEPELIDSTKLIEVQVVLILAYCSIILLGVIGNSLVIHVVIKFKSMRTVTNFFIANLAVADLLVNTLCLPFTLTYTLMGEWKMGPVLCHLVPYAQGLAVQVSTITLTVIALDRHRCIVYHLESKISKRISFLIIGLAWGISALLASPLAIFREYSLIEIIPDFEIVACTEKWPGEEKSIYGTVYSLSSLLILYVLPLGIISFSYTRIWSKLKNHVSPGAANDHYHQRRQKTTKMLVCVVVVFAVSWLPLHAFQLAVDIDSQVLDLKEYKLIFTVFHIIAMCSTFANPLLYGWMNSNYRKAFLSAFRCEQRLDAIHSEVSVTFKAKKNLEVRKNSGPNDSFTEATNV
In words: Radioligand binding competition assay (RLB). The method, boiled down:
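Membranes (0.5 μg/well) and test peptides, serially diluted from 1 mM DMSO stocks, were incubated 2 hours at room temperature in HEPES buffer pH 7.4 with Mg, Ca and ovalbumin.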

The target of assay [2] is T2, human NPY1 receptor (Homo sapiens, UniProt P25929).
T2 construct: expressed in transfected cells; host or cells: CHO-K1
T2 sequence (P25929 1-384): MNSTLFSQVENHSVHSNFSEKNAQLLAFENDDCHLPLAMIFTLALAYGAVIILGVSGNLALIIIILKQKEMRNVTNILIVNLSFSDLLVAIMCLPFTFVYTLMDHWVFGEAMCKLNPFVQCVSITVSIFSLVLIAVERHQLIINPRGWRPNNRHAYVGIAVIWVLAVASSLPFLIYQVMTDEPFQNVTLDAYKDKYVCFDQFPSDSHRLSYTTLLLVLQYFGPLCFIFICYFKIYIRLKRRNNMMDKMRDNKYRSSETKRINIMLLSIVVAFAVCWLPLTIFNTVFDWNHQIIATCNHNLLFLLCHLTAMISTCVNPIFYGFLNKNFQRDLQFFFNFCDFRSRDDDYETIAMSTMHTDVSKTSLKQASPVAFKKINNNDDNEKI
In words: HTRF cAMP Gi assay, hY1R. As to conditions: Table 4; CHO-K1 cells. The class given is cell-based.
Procedure: Briefly, the production of intracellular cAMP will generate a competition between unlabeled cAMP and exogenously added d2-cAMP for anti-cAMP antibodies conjugated to cryptate. CHO-K1 cells stably expressing the human NPY1, NPY2, NPY4 and NPY5 receptors were used with the cells brought to life from a frozen stock immediately before assay performance. 2000 cells per well were applied for all four NPY receptor subtype assays. A 384-well format was used applying a total volume of 20 μl using 5 μl cells, 2.5 μl peptide agonist, 2.5 μl forskolin and 5 μl of each of the fluorophores. […] Concentration-response evaluation of compounds was performed with 11 concentrations of agonist peptides (covering 3 decades). EC50 values were calculated by nonlinear regression using sigmoid concentration-response with variable slope.

In assay [3] the target is T3, human NPY4 receptor (Homo sapiens, UniProt P50391).
T3 construct: expressed in transfected cells; host or cells: CHO-K1
T3 sequence (P50391 whole entry): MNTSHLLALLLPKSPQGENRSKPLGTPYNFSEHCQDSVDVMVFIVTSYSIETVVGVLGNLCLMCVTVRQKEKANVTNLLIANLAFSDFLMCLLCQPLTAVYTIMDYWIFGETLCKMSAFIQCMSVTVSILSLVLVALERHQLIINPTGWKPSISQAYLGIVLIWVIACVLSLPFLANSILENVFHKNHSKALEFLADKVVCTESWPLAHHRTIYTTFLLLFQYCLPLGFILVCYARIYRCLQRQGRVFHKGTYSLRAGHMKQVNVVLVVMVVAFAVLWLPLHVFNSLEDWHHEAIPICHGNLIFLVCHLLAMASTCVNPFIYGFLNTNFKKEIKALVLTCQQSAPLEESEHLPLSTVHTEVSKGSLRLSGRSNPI
In words: HTRF cAMP Gi assay, hY4R. Format: cell-based. As to conditions: Table 4; CHO-K1 cells. For orientation: TR-FRET usually uses a lanthanide donor and a delayed reading to cut background.
Source text: (§1) The Homogenous Time Resolved fluorescence (HTRF) technology optimized for Gi coupled receptors has thoroughly been described in Cisbio cAMP Gi kit manual. Briefly, the production of intracellular cAMP will generate a competition between unlabeled cAMP and exogenously added d2-cAMP for anti-cAMP antibodies conjugated to cryptate. CHO-K1 cells stably expressing the human NPY1, NPY2, NPY4 and NPY5 receptors were used with the cells brought to life from a frozen stock immediately before assay performance. 2000 cells per well were applied for all four NPY receptor subtype assays. A 384-well format was used applying a total volume of 20 μl using 5 μl cells, 2.5 μl peptide agonist, 2.5 μl forskolin and 5 μl of each of the fluorophores. […] Concentration-response evaluation of compounds was performed with 11 concentrations of agonist peptides (covering 3 decades). EC50 values were calculated by nonlinear regression using sigmoid concentration-response with variable slope.

Assay [4] addresses T1, Human Neuropeptide Y2 Receptor. In words: Activity (RLB) after incubation in solutions at different pH values. Format: binding. As to conditions: apparent Ki of filtrate after 2 h in buffer. On the procedure:
The filtration RLB assay was carried out in 96-well plates in a final volume of 100 μl per well. Freeze-dried test peptides were dissolved in 100% dimethyl sulfoxide (DMSO) to stock solutions of 1 mM and serial dilutions were performed in assay buffer (50 mM HEPES, 5 mM MgCl2, 1 mM CaCl2), pH 7.4) containing 0.2% ovalbumin. […] Next, 80 μL membranes (HTS066M, ChemiSCREEN™ Human Neuropeptide Y2 Receptor Membrane Preparation, CHEMICON) were added to each well to give a final protein concentration of 0.5 μg/well. The plates were sealed and incubated at room temperature for 2 hours in a plate shaker set at 400 rpm. The incubation was stopped by vacuum filtration onto 0.5% poly-ethylene amine (PEI) presoaked GF/C filters using a 96-well FilterMate™ harvester (Perkin Elmer) followed by four washes with 300 μl/well ice-cold wash buffer (50 mM HEPES, 500 mM NaCl, pH7.4). Filter plates were then dried for 60 min at room temperature and the bottom of the plates was sealed with backing tape UniFilter-96. Finally, 50 μl/well scintillation counter cocktail (Microscint20, Packard) was added and the radioactivity was counted in the Packard TopCount NXT scintillation counter. IC50 values (the half maximal inhibitory concentration of the agonist) were calculated by nonlinear regression analysis of sigmoidal dose-response curves.
Peptides (as TFA salts) were weighed out in a filter unit (Mini-UniPrep Syringeless Filter 0.45 μm, Whatman), and 0.1 M sodium diphosphate buffer at pH 6.4 or 7.4, respectively, or 0.2 M TRIS buffer at pH 8.3 was added to achieve 10 mg/ml final concentration. The peptide was (partially) dissolved by shaking the filter unit horizontally at approx. 400 rpm for 2 hours at room temperature. The sample was filtered to remove any insoluble particles.

The target in assay [5] is T4, human NPY2 receptor (Homo sapiens, UniProt P49146).
T4 sequence (P49146 1-381): T1 sequence (P49146 1-381)
In words: HTRF cAMP Gi assay, hY2R.

In assay [6] the target is T5, human NPY5 receptor (Homo sapiens, UniProt Q15761).
T5 sequence (Q15761 1-445): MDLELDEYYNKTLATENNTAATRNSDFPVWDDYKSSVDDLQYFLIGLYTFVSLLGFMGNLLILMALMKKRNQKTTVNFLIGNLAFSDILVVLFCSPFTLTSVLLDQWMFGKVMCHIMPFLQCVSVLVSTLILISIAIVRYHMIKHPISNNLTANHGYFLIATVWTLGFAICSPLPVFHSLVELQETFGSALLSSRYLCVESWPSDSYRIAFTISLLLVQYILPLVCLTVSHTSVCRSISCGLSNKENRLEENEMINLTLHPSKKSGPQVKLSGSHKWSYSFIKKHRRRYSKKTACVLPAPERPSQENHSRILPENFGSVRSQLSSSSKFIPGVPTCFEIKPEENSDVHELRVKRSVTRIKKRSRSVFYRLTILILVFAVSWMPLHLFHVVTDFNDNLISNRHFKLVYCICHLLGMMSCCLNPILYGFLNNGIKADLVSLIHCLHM
The assay is described as follows: HTRF cAMP Gi assay, hY5R.
Source text: as §1

Setting [7] is: Table 3, human 125I-PYY (1-36) 0.02 nM, Y2 receptor membranes, read-out: Ki.
The mark [8] stands for this setting: Table 8, from DMSO stock, read-out: hY2R RLB Ki (nM) DMSO.
The mark [9] stands for this setting: pH6.1-6.2, assumed 10 mg/ml, read-out: RLB 6 (pH6.1-6.2).
Where [10] appears, read: pH7.1-7.2, assumed 10 mg/ml, read-out: RLB 7 (pH7.1-7.2).
The mark [11] stands for this setting: pH8.1-8.2, assumed 10 mg/ml, read-out: RLB 8 (pH8.1-8.2).

Turning to `CC[C@H](C)[C@H](NC(=O)[C@H](CCC(=O)O)NC(=O)[C@H](CCC(=O)O)NC(=O)[C@@H]1CCCN1C(=O)[C@H](CO)NC(=O)[C@H](C)NC(=O)[C@H](CC(=O)O)NC(=O)[C@H](CCC(=O)O)NC(=O)[C@H](CCC(=O)O)NC(=O)[C@@H]1CCCN1C(=O)[C@H](CCCCNC(=O)COCCOCCNC(=O)COCCOCCNC(=O)CC[C@H](NC(=O)CCCCCCCCCCCCCCCCC(=O)O)C(=O)O)NC(=O)[C@H](C)NC(=O)[C@@H]1CCCN1C(=O)[C@H](C)NC(=O)CC(C)C)C(=O)N[C@@H](CCC(N)=O)C(=O)N[C@@H](CCCNC(=N)N)C(=O)N[C@@H](Cc1ccc(O)cc1)C(=O)N[C@@H](Cc1ccc(O)cc1)C(=O)N[C@H](C(=O)N[C@@H](CO)C(=O)N[C@@H](CC(C)C)C(=O)N[C@@H](CCCNC(=N)N)C(=O)N[C@@H](Cc1c[nH]cn1)C(=O)N[C@@H](Cc1ccc(O)cc1)C(=O)N[C@@H](Cc1ccc(O)cc1)C(=O)N[C@@H](CC(N)=O)C(=O)N[C@@H](Cc1c[nH]c2ccccc12)C(=O)N[C@@H](CC(C)C)C(=O)N[C@H](C(=O)N[C@@H](CCCNC(=N)N)C(=O)N[C@@H](CCC(N)=O)C(=O)N[C@@H](CCCNC(=N)N)C(=O)N[C@@H](Cc1ccc(O)cc1)C(N)=O)[C@@H](C)O)C(C)C` [Compound 23, N{alpha-4}-(3-methylbutanoyl)-N{epsilon-7}-[2-(2-{2-[2-(2-{2-[(4S)-4-carboxy-4-(17-carboxyheptadecanamido)butanamido]ethoxy}ethoxy)acetamido]ethoxy}ethoxy)acetamido]-[4A,6A,7K,9E,17I,18Q,22V,28Y,30W,31L]hPYY (4-36)], the Ki in assay [1] (setting [7]) amounted to 0.63 nM; in assay [1] (setting [8]), 4.9 nM; in assay [4] (setting [9]), 6.3 nM; in assay [4] (setting [10]) it was 6.3 nM; in assay [4] (setting [11]), 6.3 nM. The EC50 in assay [2] was greater than 5000 nM; in assay [3] it was greater than 5000 nM; in assay [5], 0.15 nM; in assay [6] it was greater than 5000 nM.

For `CC[C@H](C)[C@H](NC(=O)[C@H](CCC(=O)O)NC(=O)[C@H](CCC(=O)O)NC(=O)[C@@H]1CCCN1C(=O)[C@H](CO)NC(=O)[C@H](C)NC(=O)[C@H](CC(=O)O)NC(=O)[C@H](C)NC(=O)[C@H](CCC(=O)O)NC(=O)[C@@H]1CCCN1C(=O)[C@H](CCCCNC(=O)COCCOCCNC(=O)COCCOCCNC(=O)CC[C@H](NC(=O)CCCCCCCCCCCCCCCCC(=O)O)C(=O)O)NC(=O)[C@H](CCC(=O)O)NC(=O)[C@@H]1CCCN1C(=O)[C@H](C)NC(=O)CC(C)C)C(=O)N[C@@H](CCC(N)=O)C(=O)N[C@@H](CCCNC(=N)N)C(=O)N[C@@H](Cc1ccc(O)cc1)C(=O)N[C@@H](Cc1ccc(O)cc1)C(=O)N[C@H](C(=O)N[C@@H](CO)C(=O)N[C@@H](CC(C)C)C(=O)N[C@@H](CCCNC(=N)N)C(=O)N[C@@H](Cc1c[nH]cn1)C(=O)N[C@@H](Cc1ccc(O)cc1)C(=O)N[C@@H](Cc1ccc(O)cc1)C(=O)N[C@@H](CC(N)=O)C(=O)N[C@@H](Cc1c[nH]c2ccccc12)C(=O)N[C@@H](CC(C)C)C(=O)N[C@H](C(=O)N[C@@H](CCCNC(=N)N)C(=O)N[C@@H](CCC(N)=O)C(=O)N[C@@H](CCCNC(=N)N)C(=O)N[C@@H](Cc1ccc(O)cc1)C(N)=O)[C@@H](C)O)C(C)C` [Compound 53, N{alpha-4}-(3-methylbutanoyl)-N{epsilon-7}-[2-(2-{2-[2-(2-{2-[(4S)-4-carboxy-4-(17-carboxyheptadecanamido)butanamido]ethoxy}ethoxy)acetamido]ethoxy}ethoxy)acetamido]-[4A,7K,9E,10A,17I,18Q,22V,28Y,30W,31L]hPYY (4-36)], the Ki was 0.24 nM in assay [1] (setting [7]); 2 nM in assay [1] (setting [8]); 3.4 nM in assay [4] (setting [9]); 3.1 nM in assay [4] (setting [10]); 2.5 nM in assay [4] (setting [11]). The 50% effective concentration (EC50) in assay [2] is greater than 5000 nM; in assay [3] it was greater than 5000 nM; in assay [5], 0.119 nM; in assay [6] it was greater than 5000 nM.

On to `CC(C)CC(=O)N[C@@H](C)C(=O)N1CCC[C@H]1C(=O)N[C@@H](C)C(=O)N[C@@H](CCCCNC(=O)COCCOCCNC(=O)COCCOCCNC(=O)CC[C@H](NC(=O)CCCCCCCCCCCCCCCCC(=O)O)C(=O)O)C(=O)N1CCC[C@H]1C(=O)N[C@@H](CCC(=O)O)C(=O)N[C@@H](CCC(=O)O)C(=O)N[C@@H](CC(=O)O)C(=O)N[C@@H](C)C(=O)N[C@H](C(=O)N1CCC[C@H]1C(=O)N[C@@H](CCC(=O)O)C(=O)N[C@@H](CCC(=O)O)C(=O)N[C@@H](CC(C)C)C(=O)N[C@@H](CCC(N)=O)C(=O)N[C@@H](CCCNC(=N)N)C(=O)N[C@@H](Cc1ccc(O)cc1)C(=O)N[C@@H](Cc1ccc(O)cc1)C(=O)N[C@H](C(=O)N[C@@H](CO)C(=O)N[C@@H](CC(C)C)C(=O)N[C@@H](CCCNC(=N)N)C(=O)N[C@@H](Cc1c[nH]cn1)C(=O)N[C@@H](Cc1ccc(O)cc1)C(=O)N[C@@H](Cc1ccc(O)cc1)C(=O)N[C@@H](CC(N)=O)C(=O)N[C@@H](Cc1c[nH]c2ccccc12)C(=O)N[C@@H](CC(C)C)C(=O)N[C@H](C(=O)N[C@@H](CCCNC(=N)N)C(=O)N[C@@H](CCC(N)=O)C(=O)N[C@@H](CCCNC(=N)N)C(=O)N[C@@H](Cc1ccc(O)cc1)C(N)=O)[C@@H](C)O)C(C)C)[C@@H](C)O` [Compound 106, N{alpha-4}-(3-methylbutanoyl)-N{epsilon-7}-[2-(2-{2-[2-(2-{2-[(4S)-4-carboxy-4-(17-carboxyheptadecanamido)butanamido]ethoxy}ethoxy)acetamido]ethoxy}ethoxy)acetamido]-[4A,6A,7K,9E,13T,18Q,22V,28Y,30W,31L]hPYY (4-36)], for which the Ki in assay [1] (setting [7]) was 0.66 nM; in assay [1] (setting [8]), 6 nM; in assay [4] (setting [9]) it was 7.7 nM; in assay [4] (setting [10]) it was 9.3 nM; in assay [4] (setting [11]), 7.5 nM. Further, the EC50 is greater than 5000 nM in assay [2], greater than 5000 nM in assay [3], 0.173 nM in assay [5] and greater than 5000 nM in assay [6].

What is called EC50 is the concentration that produces a half-maximal response. A high value points to a need for much substance.

The record behind these values is US12559529B2, “NPY2 receptor agonists” (Boehringer Ingelheim International GmbH, priority 2019, dated 2026).
